From patent US20260347310A1, “PHENALKYLAMINES AND METHODS OF MAKING AND USING THE SAME” (GILGAMESH PHARMACEUTICALS, INC., priority 2022, published 2026)
Read-outs that look alike come from different tables or passages of the source.

How the values were obtained:
[1] = Pharmacokinetics in plasma of rats after oral and intravenous dosing; oral bioavailability; format: in vivo, Sprague Dawley rats
Method: The pharmacokinetics of disclosed compounds were determined in the plasma of rats after oral and intravenous dosing, with the results presented in Table 13.
Animals. Male Sprague Dawley rats were used in these studies. Animals were randomly assigned to treatment groups and were fasted overnight before oral dosing.
Drugs. The test compound was dissolved in 10% captisol (1) or 10% DMSO and 90% normal saline (2a) and administered intravenously (iv) at 2 mg/kg (1) or 1 mg/kg (2a) or orally (po) at 10 mg/kg (1) or 1 mg/kg (2a), calculated based on freebase, and at a volume of 10 mL/kg body weight for oral administration and 5 mL/kg for IV administration. The compounds were tested as the racemates.
Sample Collection and Bioanalysis. Blood samples were collected through the external jugular vein (via cannulation) at 0.083, 0.25, 0.5, 1, 2, 4, 8, and 24 h post-dose (total 8 time points/rat, 4 rats per administration route). At each time point, ~0.2 mL of blood was withdrawn and transferred into a pre-labeled 0.5-mL micro centrifuge tube containing 4 μL of 200 mM K2EDTA solution as anticoagulant and mixed gently by inverting the tube to facilitate mixing of anticoagulant with the blood. Blood samples were kept on ice until centrifugation. The collected blood samples were centrifuged at 4,000 rpm for 10 min at 4° C. Plasma samples were separated after centrifugation, transferred into pre-labeled tubes, and stored at −70° C. until bioanalysis. For bioanalysis, a 200-μL aliquot of internal standard prepared in acetonitrile (cetirizine, 50 ng/mL) was added (except for blank, where 200 μL of acetonitrile was added) to a 96-well Solvinert filter plate followed by 5 μL of a study plasma sample or spiked calibration standard. The filter plate was then centrifuged for 5 minutes at a speed of 2,500 rpm at 4° C. with a 96-well sample collection plate. Following centrifugation, collected samples were analyzed using a fit-for-purpose LC-MS/MS method, with authentic samples of the analyte used for calibration and identification.
Data Analysis. Pharmacokinetic parameters were estimated using the non-compartmental analysis tool of Phoenix® WinNonlin software (Ver 8.1). The drug concentrations of samples below the lower limit of quantitation (LLOQ) were designated as zero.

5-HT2C receptor [2] = target: T1, 5-HT2C receptor (Homo sapiens, UniProt P28335); experiment: Radioligand binding at 5-HT2C ([3H]mesulergine)
T1 sequence (P28335 33-458): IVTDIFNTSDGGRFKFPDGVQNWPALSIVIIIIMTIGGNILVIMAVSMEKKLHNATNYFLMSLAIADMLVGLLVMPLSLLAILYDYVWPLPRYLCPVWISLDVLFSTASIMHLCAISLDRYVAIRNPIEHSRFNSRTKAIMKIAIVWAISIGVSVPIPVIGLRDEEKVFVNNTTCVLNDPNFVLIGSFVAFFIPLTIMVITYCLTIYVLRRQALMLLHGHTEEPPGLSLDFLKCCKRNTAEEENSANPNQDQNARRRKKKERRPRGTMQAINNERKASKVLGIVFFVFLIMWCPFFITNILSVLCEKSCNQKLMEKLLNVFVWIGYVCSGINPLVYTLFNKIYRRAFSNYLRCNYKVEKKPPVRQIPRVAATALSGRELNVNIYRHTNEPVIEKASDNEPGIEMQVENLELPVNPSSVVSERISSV
Method: (§1) The binding affinities of disclosed compounds at the ketanserin binding site of the 5-HT2A receptor, the LSD binding site of the 5-HT2B receptor, and the mesulergine binding site of the 5-HT2C receptor were determined in radioligand binding experiments.
(§2) Method. The affinity of the test compounds for 5-HT2A, 5-HT2B, and 5-HT2C receptors was determined in radioligand binding experiments with [^3H]ketanserin, [^3H]LSD, and [^3H]mesulergine, respectively, by WuXi AppTec (Hong Kong) Limited, using methods adapted from the literature and under conditions described in Table 7.

5-HT2B receptor = target: T2, 5-HT2B receptor (Homo sapiens, UniProt P41595); experiment: Radioligand binding at 5-HT2B ([3H]LSD)
T2 construct: expressed in transfected cells; host or cells: HEK293
T2 sequence (P41595 whole entry): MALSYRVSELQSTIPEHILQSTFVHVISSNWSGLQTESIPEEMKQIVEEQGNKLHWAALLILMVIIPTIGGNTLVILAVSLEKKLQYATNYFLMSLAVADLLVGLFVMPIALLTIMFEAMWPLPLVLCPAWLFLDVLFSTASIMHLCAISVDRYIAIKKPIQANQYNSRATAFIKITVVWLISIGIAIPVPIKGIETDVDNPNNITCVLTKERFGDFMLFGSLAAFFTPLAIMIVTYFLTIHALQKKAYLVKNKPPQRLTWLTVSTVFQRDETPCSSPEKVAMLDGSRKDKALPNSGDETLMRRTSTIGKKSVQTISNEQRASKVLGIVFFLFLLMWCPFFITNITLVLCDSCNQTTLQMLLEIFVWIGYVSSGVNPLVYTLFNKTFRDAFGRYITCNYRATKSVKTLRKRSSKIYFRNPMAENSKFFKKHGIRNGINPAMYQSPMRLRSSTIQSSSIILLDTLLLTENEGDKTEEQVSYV
Method: as §1, §2

5-HT2C receptor [3] = target: T1, 5-HT2C receptor; experiment: FLIPR Ca2+ flux functional agonist assay at 5-HT2C; format: cell-based; parameters: expressed in transfected cells; details: for Emax: agonist activity, FLIPR Ca2+ flux, stably transfected cells, at max dose, read-out: 5-HT2C % Act @ Max Dose
Method: Disclosed compounds were tested for agonist activity at several serotonin receptor subtypes (5-HT2A, […], and 5-HT2C) using Ca^2+ flux functional assays, with the results summarized in Table 9.
Test Compounds. Compounds were prepared as described above.
Functional Assays at 5-HT2C. Agonist activity at 5-HT2C was determined using a FLIPR Ca^2+ flux assay at Eurofins DiscoverX (Fremont, CA) according to their standard protocols. Briefly, stably transfected cells expressing the human 5-HT2C receptor were grown and plated in a 384-well plate and incubated at 37° C. and 5% CO2 overnight. Assays were performed in 1× Dye Loading Buffer consisting of 1× Dye, 1× Additive A, and 2.5 mM Probenecid in HBSS/20 mM Hepes. Probenecid was prepared fresh. Cells were loaded with dye prior to testing and incubated at 37° C. for 30-60 minutes. After dye loading, cells were removed from the incubator and 10 μL HBSS/20 mM Hepes was added. 3× vehicle was included in the assay buffer. Cells were incubated for 30 mins at room temperature in the dark to equilibrate plate temperature. Intermediate dilution of sample stocks was performed to generate 4× sample in assay buffer. Compound agonist activity was measured on a FLIPR Tetra (MDS). Calcium mobilization was monitored for 2 minutes and 10 μL 4× sample in HBSS/20 mM Hepes was added to the cells 5 seconds into the assay.

Row | Structure (SMILES) | C0 ([1]; rat plasma, IV 1 mg/kg, racemate, 10% DMSO and 90% normal saline) [ng/mL] | AUC(0-t) ([1]; rat plasma, IV 1 mg/kg, racemate, 10% DMSO and 90% normal saline, read-out: AUC0-last (iv)) [ng·h/mL] | half-life ([1]; rat plasma, IV 1 mg/kg, racemate, 10% DMSO and 90% normal saline, read-out: t1/2 (iv) (converted)) [h] | bioavailability ([1]; rat plasma, IV and PO 1 mg/kg, racemate, 10% DMSO and 90% normal saline, read-out: F (absolute oral bioavailability)) [%] | Cmax ([1]; rat plasma, PO 1 mg/kg, racemate, 10% DMSO and 90% normal saline, fasted) [ng/mL] | AUC(0-t) ([1]; rat plasma, PO 1 mg/kg, racemate, 10% DMSO and 90% normal saline, fasted, read-out: AUC0-last (po)) [ng·h/mL] | half-life ([1]; rat plasma, PO 1 mg/kg, racemate, 10% DMSO and 90% normal saline, fasted, read-out: t1/2 (po) (converted)) [h] | absolute oral bioavailability (F) (in words) ([1]; rats, 2a 1 mg/kg iv and 1 mg/kg po, 1 2 mg/kg iv and 10 mg/kg po, racemates) | Ki (5-HT2C receptor [2]) [nM] | selectivity for 5-HT2A over 5-HT2C (in words) (5-HT2C receptor [2]; Ki at 5-HT2C vs Ki at 5-HT2A) | Ki (5-HT2B receptor) [nM] | fold lower affinity at 5-HT2B (5-HT2B receptor; 1R compared to 1S) | fold lower affinity at 5-HT2C (5-HT2C receptor [2]; 1R compared to 1S) | EC50 (5-HT2C receptor [3]) [nM] | fold more potent at 5-HT2C (5-HT2C receptor [3]; 1R compared to 1S, Ca2+ flux) | Emax (5-HT2C receptor [3]) [%]
1 | CCC(N)Cc1cc(OC)c(CCCCCC(F)(F)F)cc1OC (racemic) [Compound 2a, 1-(2,5-dimethoxy-4-(6,6,6-trifluorohexyl)phenyl)butan-2-amine] | 75.9 | 90 | 2.71 | 28 | 29.7 | 25 | 3.07 | improved absolute oral bioavailability (F), compared to 1 | 61.7 | even higher selectivity than 1R for 5-HT2A over 5-HT2C | – | – | – | – | – | –
2 | CCCCCCc1cc(OC)c(C[C@H](N)CC)cc1OC [Compound 1R, (R)-1-(4-hexyl-2,5-dimethoxyphenyl)butan-2-amine] | – | – | – | – | – | – | – | – | 18 | – | 111 | ~ 36 fold | ~ 7 fold | 1190 | ~ 3 fold | 104
3 | CCCCCCc1cc(OC)c(C[C@@H](N)CC)cc1OC [Compound 1S, (S)-1-(4-hexyl-2,5-dimethoxyphenyl)butan-2-amine] | – | – | – | – | – | – | – | – | 2.68 | – | 3.1 | – | – | 3130 | – | 106
